{
  "source": "patent US20240132484A1",
  "about": "“BROAD SPECTRUM ANTIVIRAL COMPOUNDS TARGETING THE SKI COMPLEX” (priority 2020, published 2024)",
  "key": {"[1]": {"tested_on": "SARS2", "type": "cell-based, SARS-CoV-2", "conditions": "for Percentage Infection Relative to Appropriate DMSO Control: avg background subtraction"}, "[2]": {"tested_on": "cells (nuclei count)", "conditions": "for Toxicity Data: Average, Mean: average of Exp 1-3 (SMW475, SMW477, SMW478), n 9; for Toxicity Data, Percentage Relative to Appropriate DMSO Control, Mean: Average of Exp 1 and Exp 2, n=4; for Toxicity Data, Percentage Relative to Appropriate DMSO Control: single wells"}},
  "note": "Values joined by “and” are separate entries in the source; they are usually repeats but may differ in a detail not shown here. Equal entries are not always repeated. Where two headings read alike, the source gives them in different places.",
  "data": [
    {"smiles": "COc1ccc(CNCCc2ccccc2F)c(OCC(O)CN2CCN(C)CC2)c1", "note": "(racemic) [UMB18G]", "values": [
      {"measurement": "Percentage Infection Relative to Appropriate DMSO Control", "setting": "[1]; Exp 2 (SMW492), 50 uM, single wells", "value": "1.27% and 0.52% and 1.57% and 1.49%"},
      {"measurement": "Percentage Infection Relative to Appropriate DMSO Control", "setting": "[1]; Exp 3 (SMW480), 1 uM", "value": "54.21% and 61.59% and 57.93%"},
      {"measurement": "Percentage Infection Relative to Appropriate DMSO Control", "setting": "[1]; Exp 3 (SMW480), 5 uM", "value": "19.54% and 24.35% and 30.13%"},
      {"measurement": "Percentage Infection Relative to Appropriate DMSO Control", "setting": "[1]; Exp 3 (SMW480), 10 uM", "value": "53.71% and 59.47% and 34.88%"},
      {"measurement": "Percentage Infection Relative to Appropriate DMSO Control", "setting": "[1]; Exp 3 (SMW480), 25 uM", "value": "−0.67% and 2.60% and 2.37%"},
      {"measurement": "Percentage Infection Relative to Appropriate DMSO Control", "setting": "[1]; Exp 3 (SMW480), 50 uM", "value": "−1.69% and −2.08% and −2.66%"},
      {"measurement": "Percentage Inhibition Average 1 μM", "setting": "[1]; SARS2, 1 μM", "value": 40.42, "unit": "%"},
      {"measurement": "Screening data (Relative infection to DMSO controls) Average 1 μM", "setting": "[1]; SARS2, 1 μM, 100=DMSO control", "value": 59.58},
      {"measurement": "Percentage Inhibition Average 5 μM", "setting": "[1]; SARS2, 5 μM", "value": 68.79, "unit": "%"},
      {"measurement": "Screening data (Relative infection to DMSO controls) Average 5 μM", "setting": "[1]; SARS2, 5 μM, 100=DMSO control", "value": 31.21},
      {"measurement": "Percentage Inhibition Average 10 μM", "setting": "[1]; SARS2, 10 μM", "value": 90.05, "unit": "%"},
      {"measurement": "Screening data (Relative infection to DMSO controls) Average 10 μM", "setting": "[1]; SARS2, 10 μM, 100=DMSO control", "value": 9.95},
      {"measurement": "Percentage Inhibition Average 25 μM", "setting": "[1]; SARS2, 25 μM", "value": 93.14, "unit": "%"},
      {"measurement": "Screening data (Relative infection to DMSO controls) Average 25 μM", "setting": "[1]; SARS2, 25 μM, 100=DMSO control", "value": 6.86},
      {"measurement": "Percentage Inhibition Average 50 μM", "setting": "[1]; SARS2, 50 μM", "value": 94.65, "unit": "%"},
      {"measurement": "Screening data (Relative infection to DMSO controls) Average 50 μM", "setting": "[1]; SARS2, 50 μM, 100=DMSO control", "value": 5.35},
      {"measurement": "Average (relative infection to DMSO over the 5 tested concentrations)", "setting": "[1]; SARS2, average over 1 to 50 uM, 100=DMSO control", "value": 22.59},
      {"measurement": "Toxicity Data: Average, Mean", "setting": "[2]; 1 uM", "value": 125.37, "unit": "%"},
      {"measurement": "Relative cell count to DMSO controls, Average 1 μM", "setting": "[2]; 1 μM, toxicity data, 100=DMSO control", "value": 123.37},
      {"measurement": "Toxicity Data: Average, Mean", "setting": "[2]; 5 uM", "value": 151.57, "unit": "%"},
      {"measurement": "Relative cell count to DMSO controls, Average 5 μM", "setting": "[2]; 5 μM, toxicity data, 100=DMSO control", "value": 134.20},
      {"measurement": "Toxicity Data: Average, Mean", "setting": "[2]; 10 uM", "value": 148.72, "unit": "%"},
      {"measurement": "Relative cell count to DMSO controls, Average 10 μM", "setting": "[2]; 10 μM, toxicity data, 100=DMSO control", "value": 139.68},
      {"measurement": "Toxicity Data: Average, Mean", "setting": "[2]; 25 uM", "value": 110.49, "unit": "%"},
      {"measurement": "Relative cell count to DMSO controls, Average 25 μM", "setting": "[2]; 25 μM, toxicity data, 100=DMSO control", "value": 116.94},
      {"measurement": "Toxicity Data: Average, Mean", "setting": "[2]; 50 uM", "value": 58.67, "unit": "%"},
      {"measurement": "Relative cell count to DMSO controls, Average 50 μM", "setting": "[2]; 50 μM, toxicity data, 100=DMSO control", "value": 85.72},
      {"measurement": "Toxicity Data, Average, Mean", "setting": "[2]; Average of Exp 1-3, n 9, 1 uM", "value": 108.03, "unit": "%"},
      {"measurement": "Toxicity Data, Average, Mean", "setting": "[2]; Average of Exp 1-3, n 9, 5 uM", "value": 120.64, "unit": "%"},
      {"measurement": "Toxicity Data, Average, Mean", "setting": "[2]; Average of Exp 1-3, n 9, 10 uM", "value": 114.41, "unit": "%"},
      {"measurement": "Toxicity Data, Average, Mean", "setting": "[2]; Average of Exp 1-3, n 9, 25 uM", "value": 112.46, "unit": "%"},
      {"measurement": "Toxicity Data, Average, Mean", "setting": "[2]; Average of Exp 1-3, n 9, 50 uM", "value": 78.15, "unit": "%"},
      {"measurement": "Toxicity Data, Percentage Relative to Appropriate DMSO Control, Mean", "setting": "[2]; 1 uM", "value": "121.38% and 131.60%"},
      {"measurement": "Toxicity Data, Percentage Relative to Appropriate DMSO Control, Mean", "setting": "[2]; 5 uM", "value": "129.65% and 137.65%"},
      {"measurement": "Toxicity Data, Percentage Relative to Appropriate DMSO Control, Mean", "setting": "[2]; 10 uM", "value": "137.10% and 131.04%"},
      {"measurement": "Toxicity Data, Percentage Relative to Appropriate DMSO Control, Mean", "setting": "[2]; 25 uM", "value": "118.22% and 120.31%"},
      {"measurement": "Toxicity Data, Percentage Relative to Appropriate DMSO Control, Mean", "setting": "[2]; 50 uM", "value": "93.28% and 100.37%"},
      {"measurement": "Toxicity Data, nuclei count relative to DMSO controls", "setting": "[2]; Exp 1 (SMW454), 1 uM", "value": "94.8% and 106.7% and 107.9%"},
      {"measurement": "Toxicity Data, nuclei count relative to DMSO controls", "setting": "[2]; Exp 1 (SMW454), 5 uM", "value": "92.6% and 104.0% and 109.1%"},
      {"measurement": "Toxicity Data, nuclei count relative to DMSO controls", "setting": "[2]; Exp 1 (SMW454), 10 uM", "value": "94.4% and 107.2% and 106.3%"},
      {"measurement": "Toxicity Data, nuclei count relative to DMSO controls", "setting": "[2]; Exp 1 (SMW454), 25 uM", "value": "98.3% and 107.4% and 105.6%"},
      {"measurement": "Toxicity Data, nuclei count relative to DMSO controls", "setting": "[2]; Exp 1 (SMW454), 50 uM", "value": "95.5% and 101.6% and 97.7%"},
      {"measurement": "Toxicity Data, Percentage Relative to Appropriate DMSO Control", "setting": "[2]; Exp 1 (SMW506), 10 uM", "value": "114% and 126% and 122%"},
      {"measurement": "Toxicity Data, Percentage Relative to Appropriate DMSO Control", "setting": "[2]; Exp 1 (SMW506), 25 uM", "value": "111% and 119% and 121%"},
      {"measurement": "Toxicity Data, nuclei count relative to DMSO controls", "setting": "[2]; Exp 2 (SMW466), 1 uM", "value": "77.1% and 105.3% and 105.6%"},
      {"measurement": "Toxicity Data, nuclei count relative to DMSO controls", "setting": "[2]; Exp 2 (SMW466), 5 uM", "value": "80.8% and 132.0% and 142.0%"},
      {"measurement": "Toxicity Data, nuclei count relative to DMSO controls", "setting": "[2]; Exp 2 (SMW466), 10 uM", "value": "78.2% and 135.1% and 144.2%"},
      {"measurement": "Toxicity Data, nuclei count relative to DMSO controls", "setting": "[2]; Exp 2 (SMW466), 25 uM", "value": "68.6% and 126.9% and 132.7%"},
      {"measurement": "Toxicity Data, Percentage Relative to Appropriate DMSO Control", "setting": "[2]; Exp 2 (SMW507), 5 uM", "value": "144% and 156% and 158%"},
      {"measurement": "Toxicity Data, Percentage Relative to Appropriate DMSO Control", "setting": "[2]; Exp 2 (SMW507), 10 uM", "value": "148% and 160% and 140%"},
      {"measurement": "Toxicity Data, nuclei count relative to DMSO controls", "setting": "[2]; Exp 3 (SMW480), 1 uM", "value": "110.1% and 127.5% and 137.1%"},
      {"measurement": "Toxicity Data, nuclei count relative to DMSO controls", "setting": "[2]; Exp 3 (SMW480), 5 uM", "value": "113.4% and 154.3% and 157.5%"},
      {"measurement": "Toxicity Data, nuclei count relative to DMSO controls", "setting": "[2]; Exp 3 (SMW480), 10 uM", "value": "89.6% and 123.8% and 150.9%"},
      {"measurement": "Toxicity Data, nuclei count relative to DMSO controls", "setting": "[2]; Exp 3 (SMW480), 50 uM", "value": "60.8% and 69.5% and 85.1%"},
      {"measurement": "Relative cell count to DMSO controls, Average (for correlation analysis)", "setting": "[2]; average value over the 5 tested concentrations (1 to 50 uM)", "value": 119.98}
    ]}
  ]
}
